Data on 23 molecules can be found in US8153651B2, “Amide derivatives as ion-channel ligands and pharmaceutical compositions and methods of using the same” (Evotec AG, priority 2007, dated 2012).

Like-named read-outs stand apart in the source and are kept apart here.

This experiment deals with T1, hVR1 (Homo sapiens, UniProt Q8NER1).
T1 construct: expressed in transfected cells; host or cells: T-REx System cell line (Invitrogen Cat# R710-07), called 'human keratinocyte cell line' and 'HEK 293 cells'; vector pcDNA5/TO (Invitrogen Cat# V1033-20); expression induced with doxycycline
The experiment in a line: Calcium uptake assay (FLIPR), inhibition of agonist-induced calcium influx in cells expressing hVR1. The format is cell-based. The note with it: cells expressing human VR1, 2 or 30 min pre-incubation. As to the method: The syntheses of these representative compounds were carried out in accordance with the methods set forth above, and activity of the compounds was measured by percent inhibition in a calcium uptake assay, the details of which are described below.
Functional activity of compounds against the VR1 receptor was determined by measuring changes in intracellular calcium in HEK 293 cells expressing hVR1. Compounds were examined for their ability to inhibit agonist-induced calcium influx. Relative levels of [Ca^2+] were monitored in a 96-well format using a calcium-sensitive fluorescence dye and a FLIPR TETRA, Molecular Devices.
Cells that express high levels of VR1 were obtained by generation of a cell line from human keratinocytes with heterologous expression of VR1 under control of an inducible promoter. Specifically, cells expressing human VR1 under the control of the human cytomegalovirus immediate-early (CMV) promoter and two tetracycline operator 2 (TetO2) sites were made using the T-REx System (Invitrogen, Carlsbad, Calif., USA). Details and methods concerning this system are published (Hum. Gene Ther. 9, pp. 1939-1950, 1998; Annu. Rev. Microbiol. 48, pp. 345-369, 1994; Mol. Biol. 169, pp. 707-721, 1983). Human VR1 was subcloned into the T-REx System pcDNA5/TO vector (Invitrogen Cat# V1033-20) which was transfected into the T-REx System human keratinocyte cell line (Invitrogen Cat# R710-07) from which a stable cell line was established which expresses VR1 after induction by exposure to tetracycline or doxycycline (Hum. Gene Ther. 9, pp. 1939-1950, 1998; instructions that come with purchase of products noted above). Cells were maintained in a CO2 incubator (5% CO2) at 37° C. in culture medium containing DMEM with phenol red (Mediatech Cat #: 15-017-CV) supplemented with 10% heat-inactivated Fetal Bovine Serum, 5% Penicillin-streptomycin (Mediatech Cat #: 30-002-CI), 5% Glutamax® (L-Alanyl-L-Glutamine, Mediateach Cat #: 25-015-CI), 200 μg/ml hygromycin (Mediatech #:30-240-CR), 0.5 μg/ml blasticidin (Invitrogen #46-1120)).
For assay preparation, cells expressing human VR1 as described above were plated in 96-well plates (Becton Dickinson [BD] poly-D-lysine coated 96-well plates, cat#356692) at 55,000 cells per well in culture media (described above) that also contained 1 ug/ml doxycycline. Plated cells were then placed in an incubator (5% CO2) and incubated for 20-26 hours at 37° C., until the cells had grown to near confluency. Media was then aspirated from cells and 50 uL of dye-containing buffer (from Molecular Devices FLIPR Calcuim 4 Assay kit, cat# R8141) was added to each well. Cells were then left in the dark at room temperature for 1.5-2 hours. Cell plates were then placed in the FLIPR TETRA (Molecular Devices, CA, USA). Test compounds and agonists were added to wells using the liquid handling capability of the FLIPR TETRA. Calcuim responses of the cells were monitored by fluorescence readout of dye signal. Test compounds in saline (130 mM NaCl, 17 g/L sucrose, 1.8 g/L glucose, 8.8 mM HEPES, 3 mM KCl, 0.60 mM MgCl, 1.0 mM CaCl2; adjust to pH 7.4 using NaOH; 0.03% BSA added on the day of the experiment), or vehicle control in saline, were pre-incubated at the desired final concentrations in the dark at room temperature for 2 or 30 minutes with cells already containing the above mentioned dye buffer (dye solution was diluted 1:1 in culture wells with saline containing 2× the final concentration of test compound). […] Another agonist was protons via a low pH solution (saline solution described above plus 10 mM citric acid buffered to pH 5.7 with HCl instead of buffering to a neutral pH with NaOH as done for normal saline). Compounds were tested at various concentration ranges, depending upon potency of compound.

[1] abbreviates: IC50 (nM) Capsaicin, agonist capsaicin at 10 nM or its EC50.
Setting [2] is: agonist protons, low pH solution pH 5.7, read-out: IC50 (nM) Low pH.
[3] abbreviates: read-out: IC50 (nM) Capsaicin, agonist capsaicin at 10 nM or its EC50.

T1 sequence (Q8NER1 whole entry): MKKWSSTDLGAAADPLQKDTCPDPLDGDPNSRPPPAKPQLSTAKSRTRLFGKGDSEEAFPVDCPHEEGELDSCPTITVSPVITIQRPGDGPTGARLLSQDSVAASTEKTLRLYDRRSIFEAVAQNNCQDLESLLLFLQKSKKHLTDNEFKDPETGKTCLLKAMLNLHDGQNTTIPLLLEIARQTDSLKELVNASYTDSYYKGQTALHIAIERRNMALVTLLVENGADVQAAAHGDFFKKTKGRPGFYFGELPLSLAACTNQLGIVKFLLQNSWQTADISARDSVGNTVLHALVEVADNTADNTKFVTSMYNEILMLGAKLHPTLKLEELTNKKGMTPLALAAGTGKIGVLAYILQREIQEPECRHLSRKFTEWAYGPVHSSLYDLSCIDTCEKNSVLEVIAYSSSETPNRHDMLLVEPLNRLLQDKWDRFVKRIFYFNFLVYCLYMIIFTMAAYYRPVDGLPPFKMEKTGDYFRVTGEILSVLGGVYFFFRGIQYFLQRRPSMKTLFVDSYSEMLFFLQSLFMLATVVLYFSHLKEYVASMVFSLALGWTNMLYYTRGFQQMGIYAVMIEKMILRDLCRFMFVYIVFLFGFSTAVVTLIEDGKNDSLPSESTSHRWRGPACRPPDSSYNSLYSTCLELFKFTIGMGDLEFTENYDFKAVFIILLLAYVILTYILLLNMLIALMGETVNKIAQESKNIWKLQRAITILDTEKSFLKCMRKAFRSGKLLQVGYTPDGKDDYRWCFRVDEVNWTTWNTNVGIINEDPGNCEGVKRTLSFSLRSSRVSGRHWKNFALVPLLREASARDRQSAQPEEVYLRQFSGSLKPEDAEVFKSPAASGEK

Consider `COC(C)(C)c1ccc2c(n1)CC[C@@H](C(=O)N[C@H](C)c1cc(C)c(NS(C)(=O)=O)cc1F)C2` (single isomer, unassigned) [Example 14], for which the concentration for half-maximal inhibition (IC50) by setting is: under setting [1], 101 to 500 nM; under setting [2], 101 to 500 nM.

As to `COC(C)(C)c1ccc2c(n1)CC[C@H](C(=O)N[C@H](C)c1cc(C)c(NS(C)(=O)=O)cc1F)C2` (single isomer, unassigned) [Example 15], the IC50 by setting is: under setting [1], under 100 nM; under setting [2], under 100 nM.

With `Cc1cc([C@@H](C)NC(=O)C2=Cc3ccccc3OC2)c(F)cc1NS(C)(=O)=O` [Example 1, (R)—N-(1-(2-Fluoro-5-methyl-4-(methylsulfonamido)phenyl)ethyl)-2h-chromene-3-carboxamide], the IC50 by setting is: under setting [1], under 100 nM; under setting [2], 101 to 500 nM.

In the case of `Cc1cc([C@@H](C)NC(=O)C2CCc3ccccc3O2)c(F)cc1NS(C)(=O)=O` (some centres unmarked) [Example 2], the half-inhibitory concentration (IC50) runs as follows: under setting [1], 101 to 500 nM; under setting [2], over 1000 nM.

In the case of `Cc1cc([C@@H](C)NC(=O)C2CCc3ccccc3C2)c(F)cc1NS(C)(=O)=O` (some centres unmarked) [Example 3, 1,2,3,4-Tetrahydronaphthalene-2-carboxylic acid f(r)-1-(2-fluoro-4-methanesulfonylamino-5-methylphenyl)ethylamide], the IC50 was under 100 nM under setting [1] and 101 to 500 nM under setting [2].

Regarding `Cc1cc([C@@H](C)NC(=O)C2=Cc3cc(Cl)ccc3OC2)c(F)cc1NS(C)(=O)=O` [Example 4], the IC50 under setting [1] was under 100 nM and the IC50 under setting [2] is under 100 nM.

On to `COc1ccc2c(c1)CCC(C(=O)N[C@H](C)c1cc(C)c(NS(C)(=O)=O)cc1F)C2C` (some centres unmarked) [Example 5], for which the half-maximal inhibitory concentration (IC50) by setting is: under setting [1], 101 to 500 nM; under setting [2], over 1000 nM.

`Cc1cc([C@@H](C)NC(=O)C2COc3ccc(Cl)cc3C2)c(F)cc1NS(C)(=O)=O` (some centres unmarked) [Example 6]: the IC50 under setting [1] is under 100 nM and the half-maximal inhibitory concentration (IC50) under setting [2] was under 100 nM.

Regarding `Cc1cc([C@@H](C)NC(=O)C2CN(C)c3cc(C(F)(F)F)ccc3O2)c(F)cc1NS(C)(=O)=O` (some centres unmarked) [Example 7], the IC50 under setting [1] was under 100 nM and the 50% inhibitory concentration (IC50) under setting [2] was under 100 nM.

In the case of `Cc1cc([C@@H](C)NC(=O)C2CCc3nc(C(C)(C)C(F)(F)F)ccc3C2)c(F)cc1NS(C)(=O)=O` (stereo partly drawn) [Example 8, N—((R)-1-(2-Fluoro-5-methyl-4-(methylsulfonamido)phenyl)ethyl)-2-(1,1,1-trifluoro-2-methylpropan-2-yl)-5,6,7,8-tetrahydroquinoline-6-carboxamide], the IC50 under setting [1] was under 100 nM.

In the case of `Cc1cc([C@@H](C)NC(=O)[C@@H]2CCc3nc(C(C)(C)C(F)(F)F)ccc3C2)c(F)cc1NS(C)(=O)=O` [Example 9, (R)—N—((R)-1-(2-Fluoro-5-methyl-4-(methylsulfonamido)phenyl)ethyl)-2-(1,1,1-trifluoro-2-methylpropan-2-yl)-5,6,7,8-tetrahydroquinoline-6-carboxamide], the IC50 under setting [2] is under 100 nM.

Take `Cc1cc([C@@H](C)NC(=O)[C@H]2CCc3nc(C(C)(C)C(F)(F)F)ccc3C2)c(F)cc1NS(C)(=O)=O` [Example 10, (S)—N—((R)-1-(2-Fluoro-5-methyl-4-(methylsulfonamido)phenyl)ethyl)-2-(1,1,1-trifluoro-2-methylpropan-2-yl)-5,6,7,8-tetrahydroquinoline-6-carboxamide]: the IC50 under setting [3] was under 100 nM.

`COc1ccc2c(c1)CCC(C(=O)NC(C)c1cc(C)c(NS(C)(=O)=O)cc1F)C2` (centres unmarked) [Example 11, 6-Methoxy-1,2,3,4-tetrahydro-naphthalene-2-carboxylic acid [1-(2-fluoro-4-methanesulfonylamino-5-methyl-phenyl)-ethyl]-amide]: the IC50 under setting [1] lay within 101 to 500 nM.

`Cc1cc([C@@H](C)NC(=O)C2CCc3nc(C(F)(F)F)ccc3C2)c(F)cc1NS(C)(=O)=O` (stereo partly drawn) [Example 12, N—((R)-1-(2-Fluoro-5-methyl-4-(methylsulfonamido)phenyl)ethyl)-2-(trifluoromethyl)-5,6,7,8-tetrahydroquinoline-6-carboxamide]: the half-maximal inhibitory concentration (IC50) under setting [1] was under 100 nM.

As for `Cc1cc([C@@H](C)NC(=O)C2CCc3nc(C(C)(C)O)ccc3C2)c(F)cc1NS(C)(=O)=O` (stereo partly drawn) [Example 13, N—((R)-1-(2-fluoro-5-methyl-4-(methylsulfonamido)phenyl)ethyl)-2-(2-hydroxypropan-2-yl)-5,6,7,8-tetrahydroquinoline-6-carboxamide], the IC50 under setting [1] was in the range of 101 to 500 nM.

In the case of `Cc1cc([C@@H](C)NC(=O)[C@@H]2COc3cc(C(F)(F)F)ccc3O2)c(F)cc1NS(C)(=O)=O` [Example 16, (S)—N—((R)-1-(2-fluoro-5-methyl-4-(methylsulfonamido)phenyl)ethyl)-6-(trifluoromethyl)-2,3-dihydrobenzo[b][1,4]dioxine-2-carboxamide], under setting [1], the IC50 fell in the range of 101 to 500 nM.

Turning to `Cc1cc([C@@H](C)NC(=O)[C@H]2COc3ccc(C(F)(F)F)cc3O2)c(F)cc1NS(C)(=O)=O` [Example 17, (R)—N—((R)-1-(2-fluoro-5-methyl-4-(methylsulfonamido)phenyl)ethyl)-7-(trifluoromethyl)-2,3-dihydrobenzo[b][1,4]dioxine-2-carboxamide], the IC50 under setting [1] is under 100 nM.

With `Cc1cc([C@@H](C)NC(=O)[C@@H]2COc3ccc(C(F)(F)F)cc3O2)c(F)cc1NS(C)(=O)=O` [Example 19, (S)—N—((R)-1-(2-fluoro-5-methyl-4-(methylsulfonamido)phenyl)ethyl)-7-(trifluoromethyl)-2,3-dihydrobenzo[b][1,4]dioxine-2-carboxamide], under setting [1], the IC50 lay within 101 to 500 nM.

For the molecule `Cc1cc([C@@H](C)NC(=O)[C@H]2CCc3nc(C4(C)OCCO4)ccc3C2)c(F)cc1NS(C)(=O)=O` [Example 20, (S)—N—((R)-1-(2-fluoro-5-methyl-4-(methylsulfonamido)phenyl)ethyl)-2-(2-methyl-1,3-dioxolan-2-yl)-5,6,7,8-tetrahydroquinoline-6-carboxamide], under setting [1], the IC50 was 101 to 500 nM.

Consider `Cc1cc([C@@H](C)NC(=O)C2COc3nc(C(F)(F)F)ccc3O2)c(F)cc1NS(C)(=O)=O` (stereo partly drawn) [Example 21, 6-trifluoromethyl-2,3-dihydro[1,4]dioxino[2,3-b]pyridine-2-carboxylic acid [(R)-1-(2-fluoro-4-methanesulfonylamino-5-methylphenyl)ethyl]amide], for which the IC50 under setting [1] was 101 to 500 nM.

As for `C[C@@H](NC(=O)[C@H]1COc2cc(C(F)(F)F)ccc2O1)c1ccc(NS(C)(=O)=O)c(F)c1` [Example 22, (R)-6-Trifluoromethyl-2,3-dihydrobenzo[1,4]dioxine-2-carboxylic acid [(R)-1-(3-fluoro-4-methanesulfonylaminophenyl)ethyl]amide], the IC50 under setting [1] is under 100 nM.

For the molecule `C[C@@H](NC(=O)[C@H]1COc2cc(C(F)(F)F)ccc2O1)c1ccc(NS(C)(=O)=O)c(Cl)c1` [Example 23], the 50% inhibitory concentration (IC50) under setting [1] was under 100 nM.

Take “(R)—N—((R)-1-(2-fluoro-5-methyl-4-(methylsulfonamido)phenyl)ethyl)-6-(trifluoromethyl)-2,3-dihydrobenzo[b][1,4]dioxine-2-carboxamide [Example 18]”: the IC50 under setting [3] is under 100 nM.
